{
  "source": "patent US6713506B2",
  "about": "“Tea polyphenol esters and analogs thereof for cancer prevention and treatment” (University of South Florida, priority 2000, dated 2004)",
  "key": {"[1]": {"test_system": "p27 and IκB-α in LNCaP cells", "assay": "Western blot of proteasome substrates in LNCaP cells", "type": "cell-based, human", "conditions": "1 or 10 μM, 12 h", "method": "FIG. 5. Western blot analysis. A, Jurkat T cells are treated with 1 or 10 μM of EGCG or EGC for 12 h, or B, C, 25 μM of EGCG for various times, followed by Western blot assay using specific antibodies to p27, IκB-α, ubiquitin or actin, as indicated. MWs of IκB-α and actin are 40 and 43 kDa, respectively. The band of 56 kDa, indicated by an arrow in (B), is an ubiquitinated or phosphorylated form of IκB-α. The bands indicated in (C) are ubiquitin-containing proteins. D, LNCaP cells are treated with 1 or 10 μM of EGCG for 12 h. Western bot is performed as described above. E, F, Jurkat T cells are pretreated with 10 μg/ml cycloheximide for 2 hr, followed by co-incubation with 1 or 10 μM of EGCG for 8 or 12 hr as indicated. The p70 is a putative ubiquitinated p27-containing complex (An et al., 1998, Cell Death Differ 5: 1062-75).\nWestern blot analysis—Western blot assay is performed as described previously (An et al., (1998) Cell Death Differ 5(12), 1062-75) using specific antibodies to p27^Kip (monoclonal; Pharmingen), IκB-α (polyclonal; Santa Cruz), ubiquitin (polyclonal; Sigma) or actin (polyclonal; Santa Cruz). In brief, Jurkat T or LNCaP cells are treated with EGCG or EGC in dose-response or time-dependent manner. Cells are harvested and lysated using the whole lysis buffer. […] Immunocomplexes are detected using the ECL detection reagents kit (Amersham, Piscataway, N.J.)."}, "[2]": {"molecular_target": "T1, chymotrypsin-like activity in living breast (MCF7) cancer cells (Homo sapiens, UniProt P28074)", "T1 construct": "endogenous in cells; host or cells: MCF7 cells (intact)", "assay": "Proteasome chymotrypsin-like activity in living MCF7 cells", "type": "cell-based", "method": "FIG. 16(A) The fluorogenic calpain I peptide substrate Suc-Leu-Tyr-AMC (S; 40 μM) is incubated with either a purified calpain I (P; 3 μg) or buffer (Buff) at 30° C. for 30 min with or without 10 μM calpeptin, EGCG or EGC, followed by measuring AMCs (the product), as described in the text. (B) T1 or T2 cells are treated with LLL at either 10 (A-C) or 50 μM (D, E), followed by Western blotting with indicated antibodies.(C) MCF-7 cells, pre-incubated with EGCG at an indicated concentration for 12 h, are incubation for additional 12 h with 20 μM Suc-Leu-Leu-Val-Tyr-AMC (the peptide substrate for the proteasomal chymotryptic activity), followed by measurement of AMCs in medium (as described in the grant and the manuscript). (D) Cell cycle-dependent p27 degradation. PCI-13 head and neck tumor cells are treated with aphidicolin (5 μg/ml) for 24 h (0 h), followed by release for up to 24 h. […]\n(b) The peptide substrate for the proteasomal chymotrypsin-like activity, Suc-Leu-Leu-Val-Tyr-AMC, is used to measure the proteasome activity in intact Jurkat, MCF-7 and PC-3 cells, which is inhibitable by co-incubation with EGCG (FIG. 16C). […] After that, medium is collected and the liberated AMCs in the medium are measured by fluorometer to measure in vivo potency and selectivity of tea polyphenols."}, "[3]": {"molecular_target": "chymotrypsin-like activity of purified 20S proteasome", "sequence (Q9P992 whole entry)": "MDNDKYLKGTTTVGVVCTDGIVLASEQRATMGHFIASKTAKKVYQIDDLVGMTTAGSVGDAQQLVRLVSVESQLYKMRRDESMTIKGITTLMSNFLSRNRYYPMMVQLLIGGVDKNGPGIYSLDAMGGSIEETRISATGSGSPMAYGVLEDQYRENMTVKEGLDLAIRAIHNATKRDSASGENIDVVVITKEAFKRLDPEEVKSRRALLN", "type": "biochemical", "conditions": "read-out: IC50 towards the chymotrypsin-like activity of purified 20S proteasome", "method": "FIG. 8. […] A). […] Initially, 0.5 μg of purified 20S proteasome is incubated with 20 μM of a fluorogenic peptide substrate, Suc-Leu-Leu-Val-Tyr-AMC, for 30 min at 37° C. in 100 μl of assay buffer (20 mM Tris-HCl, pH 8.0) with various concentrations of tannic acid. After incubation, the reaction mixture is diluted to 200 μl with the assay buffer, followed by measurement of the hydrolyzed 7-amido-4-methyl-coumarin (AMC) groups using a fluorometer with an excitation filter of 380 nm and an emission filter of 460 nm. B). […] Tannic acid (0.3 μg/ml) and Glucose (180 μg/ml) are used in the proteasome activity assay as described above. C). […] Purified calpain I (3 μg) protein is incubated with 40 μM of a fluorogenic peptide substrate, Suc-Leu-Tyr-AMC, for 30 min at 37° C. in 100 μl of assay buffer (50 mM Tris-HCl, pH 7.5, containing 50 mM NaCl, 1 mM EDTA, 1 mM EGTA, 5 mM β-Mercaptoethanol, 5 mM CaCl2, and 0.1% CHAPS) in the absence (control) or presence of 5 μg/ml of tannic acid or 0.18 μg/ml of calpeptin (calpain inhibitor).\nInhibition of the proteasome activity in vitro by tea polyphenols—To measure the 20S proteasome chymotrypsin-like activity, 0.5 μg of a purified 20S proteasome (Calbiochem) is incubated with 20 μM of a fluorogenic peptide substrate, Suc-Leu-Leu-Val-Tyr-AMC (Calbiochem), for 30 min at 37° C. in 100 μl of assay buffer (20 mM Tris-HCl, pH 8.0), with or without tea polyphenols (purity >95%; Sigma) or tea extract. After incubation, the reaction mixture is diluted to 200 μl with the assay buffer, followed by measurement of the hydrolyzed 7-amido-4-methyl-coumarin (AMC) groups using a VersaFluor™ Fluorometer with an excitation filter of 380 nm and an emission filter of 460 nm (Bio-Rad)."}},
  "note": "“Also recorded” adds a separate entry of the source.",
  "data": [
    {"smiles": "O=C(O[C@@H]1Cc2c(O)cc(O)cc2O[C@@H]1c1cc(O)c(O)c(O)c1)c1cc(O)c(O)c(O)c1", "note": "[EGCG, (−)-epigallocatechin-3-gallate]", "values": [
      {"measurement": "p27 and IκB protein expression", "setting": "[1]", "result": "accumulated"},
      {"measurement": "inhibition of chymotrypsin-like activity in living MCF7 cells (in words)", "setting": "[2]", "result": "inhibitable; also recorded: inhibits"}
    ]},
    {"smiles": "Oc1cc(O)c2c(c1)O[C@H](c1cc(O)c(O)c(O)c1)[C@H](O)C2", "note": "[EGC, (−)-epigallocatechin]", "values": [
      {"measurement": "IC50", "setting": "[3]", "result": 1.2, "unit": "mM"}
    ]}
  ]
}
